Assays:
Experiment in all cases: cells
Assay type in all cases: functional, cell-based, Homo sapiens
COLO-824 = conditions: Homo sapiens, COLO-824
Description: SANGER: Inhibition of human COLO-824 cell growth in a cell viability assay.

DJM-1 = conditions: Homo sapiens, DJM-1
Description: SANGER: Inhibition of human DJM-1 cell growth in a cell viability assay.

ES5 = conditions: Homo sapiens, ES5
Description: SANGER: Inhibition of human ES5 cell growth in a cell viability assay.

ES7 = conditions: Homo sapiens, ES7
Description: SANGER: Inhibition of human ES7 cell growth in a cell viability assay.

EW-16 = conditions: Homo sapiens, EW-16
Description: SANGER: Inhibition of human EW-16 cell growth in a cell viability assay.

EOL1 = conditions: Homo sapiens, EOL1
Description: SANGER: Inhibition of human EoL-1-cell cell growth in a cell viability assay.

GB-1 = conditions: Homo sapiens, GB-1
Description: SANGER: Inhibition of human GB-1 cell growth in a cell viability assay.

HOP-62 = conditions: Homo sapiens, HOP-62
Description: SANGER: Inhibition of human HOP-62 cell growth in a cell viability assay.

IST-MEL1 = conditions: Homo sapiens, IST-MEL1
Description: SANGER: Inhibition of human IST-MEL1 cell growth in a cell viability assay.

IST-MES1 = conditions: Homo sapiens, IST-MES1
Description: SANGER: Inhibition of human IST-MES1 cell growth in a cell viability assay.

K5 = conditions: Homo sapiens, K5
Description: SANGER: Inhibition of human K5 cell growth in a cell viability assay.

KG-1 = conditions: Homo sapiens, KG-1
Description: SANGER: Inhibition of human KG-1 cell growth in a cell viability assay.

KM-H2 = conditions: Homo sapiens, KM-H2
Description: SANGER: Inhibition of human KM-H2 cell growth in a cell viability assay.

KNS-42 = conditions: Homo sapiens, KNS-42
Description: SANGER: Inhibition of human KNS-42 cell growth in a cell viability assay.

KNS-81-FD = conditions: Homo sapiens, KNS-81-FD
Description: SANGER: Inhibition of human KNS-81-FD cell growth in a cell viability assay.

KY821 = conditions: Homo sapiens, KY821
Description: SANGER: Inhibition of human KY821 cell growth in a cell viability assay.

L-363 = conditions: Homo sapiens, L-363
Description: SANGER: Inhibition of human L-363 cell growth in a cell viability assay.

LB2518-MEL = conditions: Homo sapiens, LB2518-MEL
Description: SANGER: Inhibition of human LB2518-MEL cell growth in a cell viability assay.

LB771-HNC = conditions: Homo sapiens, LB771-HNC
Description: SANGER: Inhibition of human LB771-HNC cell growth in a cell viability assay.

LNCaP-Clone-FGC = conditions: Homo sapiens, LNCaP-Clone-FGC
Description: SANGER: Inhibition of human LNCaP-Clone-FGC cell growth in a cell viability assay.

LOX IMVI = conditions: Homo sapiens, LOX IMVI
Description: SANGER: Inhibition of human LOXIMVI cell growth in a cell viability assay.

LS-411N = conditions: Homo sapiens, LS-411N
LU-134-A = conditions: Homo sapiens, LU-134-A
Description: SANGER: Inhibition of human LU-134-A cell growth in a cell viability assay.

LXF-289 cell line = conditions: Homo sapiens, LXF-289
Description: SANGER: Inhibition of human LXF-289 cell growth in a cell viability assay.

MHH-NB-11 = conditions: Homo sapiens, MHH-NB-11
Description: SANGER: Inhibition of human MHH-NB-11 cell growth in a cell viability assay.

MPP-89 = conditions: Homo sapiens, MPP-89
Description: SANGER: Inhibition of human MPP-89 cell growth in a cell viability assay.

MZ2-MEL = conditions: Homo sapiens, MZ2-MEL
Description: SANGER: Inhibition of human MZ2-MEL cell growth in a cell viability assay.

Mo = conditions: Homo sapiens, Mo
Description: SANGER: Inhibition of human Mo-T cell growth in a cell viability assay.

NB6 = conditions: Homo sapiens, NB6
Description: SANGER: Inhibition of human NB6 cell growth in a cell viability assay.

NCI-H1838 = conditions: Homo sapiens, NCI-H1838
Description: SANGER: Inhibition of human NCI-H1838 cell growth in a cell viability assay.

NCI-H23 = conditions: Homo sapiens, NCI-H23
Description: SANGER: Inhibition of human NCI-H23 cell growth in a cell viability assay.

NCI-H510A = conditions: Homo sapiens, NCI-H510A
Description: SANGER: Inhibition of human NCI-H510A cell growth in a cell viability assay.

NCI-H82 = conditions: Homo sapiens, NCI-H82
Description: SANGER: Inhibition of human NCI-H82 cell growth in a cell viability assay.

OMC-1 = conditions: Homo sapiens, OMC-1
Description: SANGER: Inhibition of human OMC-1 cell growth in a cell viability assay.

OVCAR-4 = conditions: Homo sapiens, OVCAR-4
Description: SANGER: Inhibition of human OVCAR-4 cell growth in a cell viability assay.

PSN1 = conditions: Homo sapiens, PSN1
Description: SANGER: Inhibition of human PSN1 cell growth in a cell viability assay.

RPMI-8866 = conditions: Homo sapiens, RPMI-8866
Description: SANGER: Inhibition of human RPMI-8866 cell growth in a cell viability assay.

SF-539 = conditions: Homo sapiens, SF-539
Description: SANGER: Inhibition of human SF539 cell growth in a cell viability assay.

SJSA-1 = conditions: Homo sapiens, SJSA-1
Description: SANGER: Inhibition of human SJSA-1 cell growth in a cell viability assay.

SK-N-FI = conditions: Homo sapiens, SK-N-FI
Description: SANGER: Inhibition of human SK-N-FI cell growth in a cell viability assay.

SW872 = conditions: Homo sapiens, SW872
Description: SANGER: Inhibition of human SW872 cell growth in a cell viability assay.

A3-KAW = conditions: Homo sapiens, A3-KAW
Description: SANGER: Inhibition of human A3-KAW cell growth in a cell viability assay.

BB49-HNC = conditions: Homo sapiens, BB49-HNC
Description: SANGER: Inhibition of human BB49-HNC cell growth in a cell viability assay.

BB65-RCC = conditions: Homo sapiens, BB65-RCC
Description: SANGER: Inhibition of human BB65-RCC cell growth in a cell viability assay.

C8166 = conditions: Homo sapiens, C8166
Description: SANGER: Inhibition of human C8166 cell growth in a cell viability assay.

TE-5 = conditions: Homo sapiens, TE-5
Description: SANGER: Inhibition of human TE-5 cell growth in a cell viability assay.

TE-9 = conditions: Homo sapiens, TE-9
Description: SANGER: Inhibition of human TE-9 cell growth in a cell viability assay.

TK-10 = conditions: Homo sapiens, TK-10
Description: SANGER: Inhibition of human TK10 cell growth in a cell viability assay.

U-266 = conditions: Homo sapiens, U-266
Description: SANGER: Inhibition of human U-266 cell growth in a cell viability assay.

## COc1cc2ncn(-c3cc(OCc4ccccc4S(C)(=O)=O)c(C#N)s3)c2cc1OC [GSK-319347A]
COLO-824
  IC50: > 5 µM
DJM-1
  IC50: > 5 µM
ES5
  IC50: > 5 µM
ES7
  IC50: > 5 µM
EW-16
  IC50: > 5 µM
EOL1
  IC50: > 5 µM
GB-1
  IC50: > 5 µM
HOP-62
  IC50: > 5 µM
IST-MEL1
  IC50: > 5 µM
IST-MES1
  IC50: > 5 µM
K5
  IC50: > 5 µM
KG-1
  IC50: > 5 µM
KM-H2
  IC50: > 5 µM
KNS-42
  IC50: > 5 µM
KNS-81-FD
  IC50: > 5 µM
KY821
  IC50: > 5 µM
L-363
  IC50: > 5 µM
LB2518-MEL
  IC50: > 5 µM
LB771-HNC
  IC50: > 5 µM
LNCaP-Clone-FGC
  IC50: > 5 µM
LOX IMVI
  IC50: > 5 µM
LS-411N
  IC50: > 5 µM
LU-134-A
  IC50: > 5 µM
LXF-289 cell line
  IC50: > 5 µM
MHH-NB-11
  IC50: > 5 µM
MPP-89
  IC50: > 5 µM
MZ2-MEL
  IC50: > 5 µM
Mo
  IC50: > 5 µM
NB6
  IC50: > 5 µM
NCI-H1838
  IC50: > 5 µM
NCI-H23
  IC50: > 5 µM
NCI-H510A
  IC50: > 5 µM
NCI-H82
  IC50: > 5 µM
OMC-1
  IC50: > 5 µM
OVCAR-4
  IC50: > 5 µM
PSN1
  IC50: > 5 µM
RPMI-8866
  IC50: > 5 µM
SF-539
  IC50: > 5 µM
SJSA-1
  IC50: > 5 µM
SK-N-FI
  IC50: > 5 µM
SW872
  IC50: > 5 µM
A3-KAW
  IC50: > 5 µM
BB49-HNC
  IC50: > 5 µM
BB65-RCC
  IC50: > 5 µM
C8166
  IC50: > 5 µM
TE-5
  IC50: > 5 µM
TE-9
  IC50: > 5 µM
TK-10
  IC50: > 5 µM
U-266
  IC50: > 5 µM

## CN(C)C(=N)NC(=N)N [METFORMIN]
COLO-824
  IC50: > 20000 µM
DJM-1
  IC50: 10200 µM
ES5
  IC50: 14700 µM
ES7
  IC50: > 20000 µM
EW-16
  IC50: 6780 µM
EOL1
  IC50: 1820 µM
GB-1
  IC50: > 20000 µM
IST-MEL1
  IC50: > 20000 µM
IST-MES1
  IC50: > 20000 µM
K5
  IC50: > 20000 µM
KG-1
  IC50: 16800 µM
KM-H2
  IC50: 18700 µM
KNS-81-FD
  IC50: 8880 µM
KY821
  IC50: 1530 µM
L-363
  IC50: 6740 µM
LB2518-MEL
  IC50: > 20000 µM
LB771-HNC
  IC50: > 20000 µM
LNCaP-Clone-FGC
  IC50: 5230 µM
LOX IMVI
  IC50: 10700 µM
LS-411N
  IC50: 10400 µM
LU-134-A
  IC50: 13000 µM
LXF-289 cell line
  IC50: 12000 µM
MPP-89
  IC50: > 20000 µM
MZ2-MEL
  IC50: > 20000 µM
Mo
  IC50: > 20000 µM
NCI-H1838
  IC50: > 20000 µM
NCI-H23
  IC50: 17100 µM
NCI-H510A
  IC50: 1310 µM
OMC-1
  IC50: 16500 µM
OVCAR-4
  IC50: 4430 µM
PSN1
  IC50: > 20000 µM
RPMI-8866
  IC50: 9030 µM
SF-539
  IC50: > 20000 µM
SJSA-1
  IC50: > 20000 µM
SK-N-FI
  IC50: > 20000 µM
A3-KAW
  IC50: > 20000 µM
BB49-HNC
  IC50: > 20000 µM
TE-5
  IC50: > 20000 µM
TE-9
  IC50: 10500 µM
TK-10
  IC50: > 20000 µM
U-266
  IC50: > 20000 µM

## CC(C)CCN1c2nc(Nc3cc(F)c(O)c(F)c3)ncc2N(C)C(=O)C1C (configuration not stated)
COLO-824
  IC50: 4.9 µM
DJM-1
  IC50: 4.8 µM
ES5
  IC50: 2.24 µM
ES7
  IC50: 0.916 µM
EW-16
  IC50: > 5 µM
EOL1
  IC50: 1.02 µM
GB-1
  IC50: > 5 µM
HOP-62
  IC50: 4.31 µM
IST-MEL1
  IC50: > 5 µM
IST-MES1
  IC50: > 5 µM
K5
  IC50: > 5 µM
KG-1
  IC50: 3.61 µM
KM-H2
  IC50: > 5 µM
KNS-42
  IC50: > 5 µM
KNS-81-FD
  IC50: > 5 µM
KY821
  IC50: 0.888 µM
L-363
  IC50: > 5 µM
LB2518-MEL
  IC50: > 5 µM
LB771-HNC
  IC50: > 5 µM
LNCaP-Clone-FGC
  IC50: 3.7 µM
LOX IMVI
  IC50: 2.04 µM
LS-411N
  IC50: > 5 µM
LU-134-A
  IC50: 3.95 µM
LXF-289 cell line
  IC50: 4.4 µM
MHH-NB-11
  IC50: > 5 µM
MPP-89
  IC50: > 5 µM
MZ2-MEL
  IC50: > 5 µM
Mo
  IC50: > 5 µM
NB6
  IC50: 2.46 µM
NCI-H1838
  IC50: > 5 µM
NCI-H23
  IC50: > 5 µM
NCI-H82
  IC50: > 5 µM
OMC-1
  IC50: > 5 µM
OVCAR-4
  IC50: > 5 µM
PSN1
  IC50: 3.06 µM
RPMI-8866
  IC50: > 5 µM
SF-539
  IC50: > 5 µM
SJSA-1
  IC50: 2.67 µM
SK-N-FI
  IC50: > 5 µM
SW872
  IC50: > 5 µM
A3-KAW
  IC50: 1.63 µM
BB49-HNC
  IC50: > 5 µM
BB65-RCC
  IC50: 3.45 µM
C8166
  IC50: > 5 µM
TE-5
  IC50: > 5 µM
TE-9
  IC50: 2.17 µM
TK-10
  IC50: > 5 µM
U-266
  IC50: 4.61 µM

## C#Cc1cccc(Nc2ncnc3cc(OCCOC)c(OCCOC)cc23)c1 [ERLOTINIB]
COLO-824
  IC50: > 2 µM
DJM-1
  IC50: > 2 µM
ES5
  IC50: > 2 µM
ES7
  IC50: > 2 µM
EW-16
  IC50: > 2 µM
EOL1
  IC50: > 2 µM
GB-1
  IC50: > 2 µM
HOP-62
  IC50: > 2 µM
IST-MEL1
  IC50: > 2 µM
IST-MES1
  IC50: > 2 µM
K5
  IC50: > 2 µM
KG-1
  IC50: > 2 µM
KM-H2
  IC50: > 2 µM
KNS-42
  IC50: > 2 µM
KNS-81-FD
  IC50: > 2 µM
L-363
  IC50: > 2 µM
LB2518-MEL
  IC50: > 2 µM
LB771-HNC
  IC50: > 2 µM
LNCaP-Clone-FGC
  IC50: > 2 µM
LOX IMVI
  IC50: > 2 µM
LS-411N
  IC50: > 2 µM
LU-134-A
  IC50: > 2 µM
LXF-289 cell line
  IC50: > 2 µM
MHH-NB-11
  IC50: > 2 µM
MPP-89
  IC50: > 2 µM
MZ2-MEL
  IC50: > 2 µM
Mo
  IC50: > 2 µM
NB6
  IC50: > 2 µM
NCI-H1838
  IC50: > 2 µM
NCI-H23
  IC50: > 2 µM
NCI-H510A
  IC50: > 2 µM
NCI-H82
  IC50: > 2 µM
OMC-1
  IC50: > 2 µM
OVCAR-4
  IC50: > 2 µM
PSN1
  IC50: > 2 µM
RPMI-8866
  IC50: > 2 µM
SF-539
  IC50: > 2 µM
SJSA-1
  IC50: > 2 µM
SW872
  IC50: > 2 µM
A3-KAW
  IC50: > 2 µM
BB49-HNC
  IC50: > 2 µM
BB65-RCC
  IC50: > 2 µM
C8166
  IC50: > 2 µM
TE-5
  IC50: > 2 µM
TE-9
  IC50: 1.23 µM
TK-10
  IC50: 0.859 µM
U-266
  IC50: > 2 µM

## CS(=O)(=O)c1ccc(C(=O)Nc2ccc(Cl)c(-c3ccccn3)c2)c(Cl)c1 [VISMODEGIB]
COLO-824
  IC50: > 10 µM
DJM-1
  IC50: > 10 µM
ES5
  IC50: > 10 µM
ES7
  IC50: > 10 µM
EW-16
  IC50: > 10 µM
GB-1
  IC50: > 10 µM
HOP-62
  IC50: > 10 µM
IST-MEL1
  IC50: > 10 µM
IST-MES1
  IC50: > 10 µM
K5
  IC50: > 10 µM
KG-1
  IC50: > 10 µM
KM-H2
  IC50: > 10 µM
KNS-42
  IC50: > 10 µM
KNS-81-FD
  IC50: > 10 µM
L-363
  IC50: > 10 µM
LB2518-MEL
  IC50: > 10 µM
LB771-HNC
  IC50: > 10 µM
LNCaP-Clone-FGC
  IC50: > 10 µM
LOX IMVI
  IC50: > 10 µM
LS-411N
  IC50: > 10 µM
LU-134-A
  IC50: > 10 µM
LXF-289 cell line
  IC50: > 10 µM
MHH-NB-11
  IC50: > 10 µM
MPP-89
  IC50: > 10 µM
MZ2-MEL
  IC50: > 10 µM
Mo
  IC50: > 10 µM
NB6
  IC50: > 10 µM
NCI-H1838
  IC50: > 10 µM
NCI-H23
  IC50: > 10 µM
NCI-H510A
  IC50: > 10 µM
NCI-H82
  IC50: > 10 µM
OMC-1
  IC50: > 10 µM
OVCAR-4
  IC50: > 10 µM
PSN1
  IC50: > 10 µM
RPMI-8866
  IC50: > 10 µM
SF-539
  IC50: > 10 µM
SJSA-1
  IC50: > 10 µM
SK-N-FI
  IC50: > 10 µM
SW872
  IC50: > 10 µM
A3-KAW
  IC50: > 10 µM
BB49-HNC
  IC50: > 10 µM
BB65-RCC
  IC50: > 10 µM
C8166
  IC50: > 10 µM
TE-5
  IC50: > 10 µM
TE-9
  IC50: > 10 µM
TK-10
  IC50: > 10 µM
U-266
  IC50: > 10 µM
